Source: paper PMC2667211, “Kinase Domain Insertions Define Distinct Roles of CLK Kinases in SR Protein Phosphorylation” (Structure(London, England:1993), 2009)

What was measured:
CLK1 = CLK1 (Homo sapiens, UniProt P49759); assay: coupled-enzyme kinase assay at […] inhibitor; thermal shift […]°C; type: biochemical
CLK3 = target: T1, CLK3 (Homo sapiens, UniProt P49761); assay: kinase assay at […] inhibitor; thermal shift screening; type: biochemical
T1 construct: kinase domain, residues 127–484
T1 sequence (P49761 127-484): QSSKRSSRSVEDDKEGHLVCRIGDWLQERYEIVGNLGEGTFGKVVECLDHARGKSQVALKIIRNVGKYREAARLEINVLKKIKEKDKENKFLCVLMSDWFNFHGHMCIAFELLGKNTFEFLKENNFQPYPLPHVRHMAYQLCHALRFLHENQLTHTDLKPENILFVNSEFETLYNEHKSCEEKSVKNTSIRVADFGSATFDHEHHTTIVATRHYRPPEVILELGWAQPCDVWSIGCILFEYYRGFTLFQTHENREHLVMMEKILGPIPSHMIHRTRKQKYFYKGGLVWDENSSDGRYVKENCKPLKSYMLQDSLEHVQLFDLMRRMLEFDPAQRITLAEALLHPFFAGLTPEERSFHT

CLK1, sequence (P49759 148-484): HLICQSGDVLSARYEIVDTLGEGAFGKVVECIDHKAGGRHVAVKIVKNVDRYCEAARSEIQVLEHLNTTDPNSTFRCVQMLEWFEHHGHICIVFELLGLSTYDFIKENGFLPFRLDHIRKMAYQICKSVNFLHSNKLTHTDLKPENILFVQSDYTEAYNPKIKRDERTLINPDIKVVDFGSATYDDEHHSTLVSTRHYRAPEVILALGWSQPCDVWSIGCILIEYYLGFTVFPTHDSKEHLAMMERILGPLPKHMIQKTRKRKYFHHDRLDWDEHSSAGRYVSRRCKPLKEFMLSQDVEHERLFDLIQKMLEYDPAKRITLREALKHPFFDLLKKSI

SMILES: Nc1nc(Nc2ccc(S(N)(=O)=O)cc2)nn1C(=S)Nc1c(F)cccc1F [compound 11, CDK1/2 inhibitor]
- % activity at 100 nM (CLK1): < 1
- % activity at 100 nM (CLK3): < 50
